Reference: patent US8754075B2, “1,3-oxazines as BACE1 and/or BACE2 inhibitors” (Hoffmann-La Roche Inc., priority 2011, dated 2014)

Experiments:
BACE1 = BACE1 (Homo sapiens (Human), UniProt P56817); test: Cellular Aβ-lowering assay; format: cell-based; settings: HEK293 cells stably expressing human APP wt (APP695); Aβ40 in supernatant by ELISA after 18-20 hrs
Method: Cellular Aβ-Lowering Assay: Human HEK293 cells which are stably transfected with a vector expressing a cDNA of the human APP wt gene (APP695) were used to assess the potency of the compounds in a cellular assay. The cells were seeded in 96-well microtiter plates in cell culture medium (Iscove, plus 10% (v/v) fetal bovine serum, glutamine, penicillin/streptomycin) to about 80% confluence and the compounds were added at a 10× concentration in 1/10 volume of medium without FCS containing 8% DMSO (final concentration of DMSO was kept at 0.8% v/v). After 18-20 hrs incubation at 37° C. and 5% CO2 in a humidified incubator the culture supernatant was harvested for the determination of Aβ40 concentrations. […] After blocking of non-specific binding sites with e.g. 1% BSA and washing, the culture supernatants were added in suitable dilutions together with a horseradish peroxidase-coupled Aβ detection antibody (e.g., antibody 4G8, Senetek, Maryland Heights, Mo.) and incubated for 5 to 7 hrs. Subsequently the wells of the microtiter plate were washed extensively with Tris-buffered saline containing 0.05% Tween 20 and the assay was developed with tetramethylbenzidine/H2O2 in citric acid buffer. After stopping the reaction with one volume […] the reaction was measured in an ELISA reader at 450 nm wavelength. The concentrations of Aβ in the culture supernatants were calculated from a standard curve obtained with known amounts of pure Aβ peptide.

BACE2 = BACE2 (Rattus norvegicus (Rat), UniProt Q6IE75); test: Assay for BACE inhibition by measuring cellular TMEM27 cleavage; format: cell-based; settings: INS-TMEM27 (INS1e rat cell line, inducible hTMEM27); shed TMEM27 by ELISA
Source text: Assay for BACE Inhibition by Measuring Cellular TMEM27 Cleavage:
The assay uses the principle of inhibition of human TMEM27 cleavage by endogenous cellular BACE2 in the Ins1e rat cell line and shedding from the cell surface into the culture medium, followed by detection in an ELISA assay Inhibition of BACE2 prevents the cleavage and shedding in a dose-dependent manner.
The stable cell line “INS-TMEM27” represents an INS1e-derived cell line with inducible expression (using the TetOn system) of full-length hTMEM27 in a doxycycline-dependent manner. The cells are cultured throughout the experiment in RPMI1640+Glutamax (Invitrogen) Penicillin/Streptomycin, 10% Fetal bovine serum, […], […], 100 micrograms/ml G418 and 100 microgram/ml hygromycin and are grown inadherent culture at 37° C. in a standard CO2 cell culture incubator.
INS-TMEM27 cells are seeded in 96-well plates. After 2 days in culture, BACE2 inhibitor is added in a range of concentrations as required by the assay and after a further two hours, doxycycline is added to a final concentration of 500 ng/ml. The cells are incubated for a further 46 hours and the supernatant harvested for detection of shed TMEM27.
An ELISA assay (using a pair of mouse anti-human-TMEM27 antibodies, raised against the extracellular domain of TMEM27) is used for detection of TMEM27 in the culture medium. An EC50 for BACE2 inhibition is calculated using the ELISA readout for each inhibitor concentration with standard curve-fitting software such as XLFit for the Excel spreadsheet program.

Chain of BACE2 (Q6IE75 63-514): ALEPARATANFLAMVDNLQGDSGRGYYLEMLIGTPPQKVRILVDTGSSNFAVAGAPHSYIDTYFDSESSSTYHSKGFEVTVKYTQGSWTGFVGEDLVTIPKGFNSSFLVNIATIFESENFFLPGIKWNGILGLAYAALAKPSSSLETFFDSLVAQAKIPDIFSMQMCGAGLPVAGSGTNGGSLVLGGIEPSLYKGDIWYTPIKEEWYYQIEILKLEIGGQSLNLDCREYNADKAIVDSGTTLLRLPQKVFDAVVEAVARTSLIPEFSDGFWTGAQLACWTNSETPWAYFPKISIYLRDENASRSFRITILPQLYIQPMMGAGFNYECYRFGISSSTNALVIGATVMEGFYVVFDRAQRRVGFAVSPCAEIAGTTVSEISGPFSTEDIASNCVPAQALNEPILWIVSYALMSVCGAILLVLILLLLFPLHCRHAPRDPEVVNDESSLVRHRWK
Chain of BACE1 (P56817 46-501): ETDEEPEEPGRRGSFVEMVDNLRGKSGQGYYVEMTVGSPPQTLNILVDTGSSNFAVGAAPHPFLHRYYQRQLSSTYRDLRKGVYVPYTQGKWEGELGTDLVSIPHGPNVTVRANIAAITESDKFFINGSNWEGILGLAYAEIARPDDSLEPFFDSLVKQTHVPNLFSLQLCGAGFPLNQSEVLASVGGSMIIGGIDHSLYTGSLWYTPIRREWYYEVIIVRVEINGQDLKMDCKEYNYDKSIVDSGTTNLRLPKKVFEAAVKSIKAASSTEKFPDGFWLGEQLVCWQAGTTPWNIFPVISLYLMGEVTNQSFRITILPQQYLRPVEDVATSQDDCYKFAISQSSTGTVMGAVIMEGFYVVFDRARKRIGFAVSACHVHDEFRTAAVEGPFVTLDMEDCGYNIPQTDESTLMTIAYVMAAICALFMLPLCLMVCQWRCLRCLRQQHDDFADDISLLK

Row | SMILES | IC50 (BACE1) [nM] | IC50 (BACE2) [nM]
1 | C[C@]1(F)COC(N)=N[C@]1(C)c1cc(NC(=O)c2ncccc2OCC(F)(F)F)ccc1F [Example 37, 3-(2,2,2-Trifluoro-ethoxy)-pyridine-2-carboxylic acid [3-((4R,5R)-2-amino-5-fluoro-4,5-dimethyl-5,6-dihydro-4H-[1,3]oxazin-4-yl)-4-fluoro-phenyl]-amide] | 22 | 226
2 | C[C@]1(c2cc(NC(=O)c3ncc(F)cc3F)ccc2F)N=C(N)OC[C@@H]1F [Example 3, 3,5-Difluoro-pyridine-2-carboxylic acid [3-((4R,5R)-2-amino-5-fluoro-4-methyl-5,6-dihydro-4H-[1,3]oxazin-4-yl)-4-fluoro-phenyl]-amide] | 1 | 7
3 | C[C@]1(c2cc(NC(=O)c3ccc(OCC(F)(F)F)cn3)ccc2F)N=C(N)OC[C@@H]1F [Example 17, 5-(2,2,2-Trifluoro-ethoxy)-pyridine-2-carboxylic acid [3-((4R,5R)-2-amino-5-fluoro-4-methyl-5,6-dihydro-4H-[1,3]oxazin-4-yl)-4-fluoro-phenyl]-amide] | 8 | 2300
4 | C[C@]1(F)COC(N)=N[C@]1(C)c1cc(NC(=O)c2ncc(Cl)cc2Cl)ccc1F [Example 39, 3,5-Dichloro-pyridine-2-carboxylic acid [3-((4R,5R)-2-amino-5-fluoro-4,5-dimethyl-5,6-dihydro-4H-[1,3]oxazin-4-yl)-4-fluoro-phenyl]-amide] | 2 | 4
5 | C[C@]1(c2cc(NC(=O)c3ncc(Cl)cc3F)ccc2F)N=C(N)OC[C@@H]1F [Example 8, 5-Chloro-3-fluoro-pyridine-2-carboxylic acid [3-((4R,5R)-2-amino-5-fluoro-4-methyl-5,6-dihydro-4H-[1,3]oxazin-4-yl)-4-fluoro-phenyl]-amide] | 2 | 6
6 | C[C@]1(F)COC(N)=N[C@]1(C)c1cc(NC(=O)c2ccc(C#N)cn2)ccc1F [Example 38, 5-Cyano-pyridine-2-carboxylic acid [3-((4R,5R)-2-amino-5-fluoro-4,5-dimethyl-5,6-dihydro-4H-[1,3]oxazin-4-yl)-4-fluoro-phenyl]-amide] | 0.4 | 23
7 | C[C@]1(F)COC(N)=N[C@]1(C)c1cc(NC(=O)C2CC2(F)F)ccc1F (stereo partly drawn) [Example 44, 2,2-Difluoro-cyclopropanecarboxylic acid [3-((4R,5R)-2-amino-5-fluoro-4,5-dimethyl-5,6-dihydro-4H-[1,3]oxazin-4-yl)-4-fluoro-phenyl]-amide] | 32 | 140
8 | C[C@]1(c2cc(NC(=O)c3ccc(Cl)cn3)ccc2F)N=C(N)OC[C@@H]1OCC(F)(F)F [Example 45, 5-Chloro-pyridine-2-carboxylic acid {3-[(4R,5R)-2-amino-4-methyl-5-(2,2,2-trifluoro-ethoxy)-5,6-dihydro-4H-[1,3]oxazin-4-yl]-4-fluoro-phenyl}-amide] | 1 | 61
9 | C[C@]1(c2cc(NC(=O)c3ccc(C#N)cn3)ccc2F)N=C(N)OC[C@@H]1OCC(F)(F)F [Example 47, 5-Cyano-pyridine-2-carboxylic acid {3-[(4R,5R)-2-amino-4-methyl-5-(2,2,2-trifluoro-ethoxy)-5,6-dihydro-4H-[1,3]oxazin-4-yl]-4-fluoro-phenyl}-amide] | 1 | 268
10 | C[C@]1(c2cc(NC(=O)c3ccc(C(F)F)cn3)ccc2F)N=C(N)OC[C@@H]1F [Example 11, 5-Difluoromethyl-pyridine-2-carboxylic acid [3-((4R,5R)-2-amino-5-fluoro-4-methyl-5,6-dihydro-4H-[1,3]oxazin-4-yl)-4-fluoro-phenyl]-amide] | 3 | 1
11 | C[C@]1(F)COC(N)=N[C@]1(C)c1cc(NC(=O)c2ccc(Cl)cn2)ccc1F [Example 41, 5-Chloro-pyridine-2-carboxylic acid [3-((4R,5R)-2-amino-5-fluoro-4,5-dimethyl-5,6-dihydro-4H-[1,3]oxazin-4-yl)-4-fluoro-phenyl]-amide] | 3 | 6
12 | C[C@]1(c2cc(NC(=O)c3ncc(C#N)cc3Cl)ccc2F)N=C(N)OC[C@@H]1F [Example 7, 3-Chloro-5-cyano-pyridine-2-carboxylic acid [3-((4R,5R)-2-amino-5-fluoro-4-methyl-5,6-dihydro-4H-[1,3]oxazin-4-yl)-4-fluoro-phenyl]-amide] | 2 | 10
13 | Cn1nc(C(F)(F)F)cc1C(=O)Nc1ccc(F)c([C@@]2(C)N=C(N)OC[C@@H]2F)c1 [Example 27, 2-Methyl-5-trifluoromethyl-2H-pyrazole-3-carboxylic acid [3-((4R,5R)-2-amino-5-fluoro-4-methyl-5,6-dihydro-4H-[1,3]oxazin-4-yl)-4-fluoro-phenyl]-amide] | 90 | 709
14 | Cc1cc(C(=O)Nc2ccc(F)c([C@@]3(C)N=C(N)OC[C@@H]3F)c2)c(C)o1 [Example 18, 2,5-Dimethyl-furan-3-carboxylic acid [3-((4R,5R)-2-amino-5-fluoro-4-methyl-5,6-dihydro-4H-[1,3]oxazin-4-yl)-4-fluoro-phenyl]-amide] | 8 | 20
15 | C[C@]1(c2cc(NC(=O)c3ccc(C#CC4CC4)cn3)ccc2F)N=C(N)OC[C@@H]1F [Example 14, 5-Cyclopropylethynyl-pyridine-2-carboxylic acid [3-((4R,5R)-2-amino-5-fluoro-4-methyl-5,6-dihydro-4H-[1,3]oxazin-4-yl)-4-fluoro-phenyl]-amide] | 4 | 9
16 | C[C@]1(c2cc(NC(=O)c3ncc(C(F)(F)F)cc3Cl)ccc2F)N=C(N)OC[C@@H]1F [Example 9, 3-Chloro-5-trifluoromethyl-pyridine-2-carboxylic acid [3-((4R,5R)-2-amino-5-fluoro-4-methyl-5,6-dihydro-4H-[1,3]oxazin-4-yl)-4-fluoro-phenyl]-amide] | 2 | 124
17 | C[C@]1(c2cc(NC(=O)c3cnc(OCC4CC4)cn3)ccc2F)N=C(N)OC[C@@H]1F [Example 16, 5-Cyclopropylmethoxy-pyrazine-2-carboxylic acid [3-((4R,5R)-2-amino-5-fluoro-4-methyl-5,6-dihydro-4H-[1,3]oxazin-4-yl)-4-fluoro-phenyl]-amide] | 5 | 590
18 | C[C@]1(c2cc(NC(=O)c3cnc(C(F)F)cn3)ccc2F)N=C(N)OC[C@@H]1F [Example 15, 5-Difluoromethyl-pyrazine-2-carboxylic acid [3-((4R,5R)-2-amino-5-fluoro-4-methyl-5,6-dihydro-4H-[1,3]oxazin-4-yl)-4-fluoro-phenyl]-amide] | 5 | 23
19 | C[C@]1(c2cc(NC(=O)c3cnc(Cl)s3)ccc2F)N=C(N)OC[C@@H]1F [Example 26, 2-Chloro-thiazole-5-carboxylic acid [3-((4R,5R)-2-amino-5-fluoro-4-methyl-5,6-dihydro-4H-[1,3]oxazin-4-yl)-4-fluoro-phenyl]-amide] | 81 | 1400
20 | COc1ccc(C(=O)Nc2ccc(F)c([C@@]3(C)N=C(N)OC[C@@H]3F)c2)nc1 [Example 13, 5-Methoxy-pyridine-2-carboxylic acid [3-((4R,5R)-2-amino-5-fluoro-4-methyl-5,6-dihydro-4H-[1,3]oxazin-4-yl)-4-fluoro-phenyl]-amide] | 4 | 65
21 | C[C@]1(c2cc(NC(=O)c3ccc(F)cn3)ccc2F)N=C(N)OC[C@@H]1F [Example 20, 5-Fluoro-pyridine-2-carboxylic acid [3-((4R,5R)-2-amino-5-fluoro-4-methyl-5,6-dihydro-4H-[1,3]oxazin-4-yl)-4-fluoro-phenyl]-amide] | 10 | 7
22 | C[C@]1(c2cc(NC(=O)c3ncc(Cl)cc3Cl)ccc2F)N=C(N)OC[C@@H]1F [Example 2, 3,5-Dichloro-pyridine-2-carboxylic acid [3-((4R,5R)-2-amino-5-fluoro-4-methyl-5,6-dihydro-4H-[1,3]oxazin-4-yl)-4-fluoro-phenyl]-amide] | 0.6 | 8
